{
  "source": "patent US20010055590A1",
  "about": "“Method for enhancing myoblast migration and invasion in the context of gene therapy” (priority 1999, published 2001)",
  "molecules": {"B1": {"name": "purified human plasmin (protein, UniProt P00747 20-580; P00747 581-810, looked up)", "Plasmin heavy chain A": "EPLDDYVNTQGASLFSVTKKQLGAGSIEECAAKCEEDEEFTCRAFQYHSKEQQCVIMAENRKSSIIIRMRDVVLFEKKVYLSECKTGNGKNYRGTMSKTKNGITCQKWSSTSPHRPRFSPATHPSEGLEENYCRNPDNDPQGPWCYTTDPEKRYDYCDILECEEECMHCSGENYDGKISKTMSGLECQAWDSQSPHAHGYIPSKFPNKNLKKNYCRNPDRELRPWCFTTDPNKRWELCDIPRCTTPPPSSGPTYQCLKGTGENYRGNVAVTVSGHTCQHWSAQTPHTHNRTPENFPCKNLDENYCRNPDGKRAPWCHTTNSQVRWEYCKIPSCDSSPVSTEQLAPTAPPELTPVVQDCYHGDGQSYRGTSSTTTTGKKCQSWSSMTPHRHQKTPENYPNAGLTMNYCRNPDADKGPWCFTTDPSVRWEYCNLKKCSGTEASVVAPPPVVLLPDVETPSEEDCMFGNGKGYRGKRATTVTGTPCQDWAAQEPHRHSIFTPETNPRAGLEKNYCRNPDGDVGGPWCYTTNPRKLYDYCDVPQCAAPSFDCGKPQVEPKKCPGR", "Plasmin light chain B": "VVGGCVAHPHSWPWQVSLRTRFGMHFCGGTLISPEWVLTAAHCLEKSPRPSSYKVILGAHQEVNLEPHVQEIEVSRLFLEPTRKDIALLKLSSPAVITDKVIPACLPSPNYVVADRTECFITGWGETQGTFGAGLLKEAQLPVIENKVCNRYEFLNGRVQSTELCAGHLAGGTDSCQGDSGGPLVCFEKDKYILQGVTSWGLGCARPNKPGVYVRVSRFVTWIEGVMRNN", "modifications": "Plasmin"}},
  "key": {"mouse myoblasts": {"test_system": "mouse myoblasts", "test": "In vitro mouse myoblast migration assay (gelatin-coated membrane)", "format": "cell-based", "conditions": "12 hours; for effect on bFGF-stimulated mouse myoblast migration: 0.05 units/ml plasmin or 50 mM NAC in top chamber; for effect on migration stimulated by bFGF and fibronectin in combination: 0.05 units/ml plasmin or 50 mM NAC; for stimulation of mouse myoblast migration over the DMEM control: 25 ng/ml bFGF, 50 μg/ml fibronectin, 10 ng/ml HGF, 2 ng/ml TGF-β1; for effect on mouse myoblast migration: stimulant in bottom chamber", "experimental": "Mouse myoblasts were previously isolated from hind limb muscles of 4-6 week old severe combined immunodeficient (SCID) mice and clonally purified from contaminating fibroblasts (Yao et al. “Primary myoblast-mediated gene: transfer: persistent expression of human factor IX in mice” Gene Therapy 1:99-107, 1994). Myoblasts (approximately 1×10^6 cells) were plated on 6 cm tissue culture plates coated with 0.5% gelatin (Sigma, St. Louis, Mo.) and grown in growth medium consisting of Dulbecco's Modified Eagle Medium (DMEM) (Gibco BRL, Gaithersburg Md.) supplemented with 20% fetal bovine serum (FBS; Gibco) and 0.5% chick embryo extract (CEE; Gibco). All animal studies were carried out following the institutional guidelines for ethical animal use. Human myoblasts were isolated using trypsin digestion from abdominal wall or chest wall muscle biopsies, and surgery. Written consent was obtained from all patients prior to biopsy isolation as approved by the University Hospital's Institutional Regulation Board on the use of human subjects. Cells were preplated on uncoated plates for 1 hour to separate muscle fibroblasts. […] All experiments were done with myoblasts of passage 7 or lower. Myoblast migration and invasion were examined using a commercially available in vitro cell migration and invasion assay kit (Biocoat, Becton Dickinson, Franklin Lakes, N.J.) as described by Albini et al. (A rapid in vitro assay for quantitating the invasive potential of tumor cells Cancer Res 47:3239-3245, 1987). Myoblasts were grown to approximately 70% confluence, rinsed three times in serum-free DMEM, followed by incubation for 3 hours in 0.2% bovine serum albumin (BSA) in DMEM to eliminate the effects of serum. Cells were then trypsinized and collected by centrifugation. Cells were resuspended in serum-free DMEM at a density of 1×10^5 cells/ml, and 0.5 ml aliquots of cell suspension were added to the top chamber. […] Fibronectin subfragments of 45 KDa (Sigma), 120 kDa (Gibco), 63 kDa (Retronectin, Takara) and 70 KDa (Sigma) were used alone or in combination. […] For migration studies, the upper chamber membrane was coated with 0.1% gelatin and cells were allowed to migrate for 8-12 hours, while for invasion studies, the upper membrane was coated with 5 μl of Matrigel® diluted to 5 mg/ml in sterile phosphate buffered saline (PBS) and cells were allowed to invade for 24 hours. The top side of the insert membrane was scrubbed free of cells using a cotton swab and the bottom side was stained using the Leukostat-I system (Fisher Diagnostics, Pittsburgh, Pa.). The number of cells per field was counted in 10 randomly selected fields and averaged for each condition. To evaluate the effects of inactivation or activation of MMPs, aliquots (0.05 units in 50 μl PBS) of purified human plasmin (Sigma) or 50 mM N-acetyl cysteine (NAC; Sigma) were added with the cells to the top chamber of the migration assay and growth factor was added to the bottom. […] Myoblasts (5×10^4 cells/well) were stimulated with various growth factors and fibronectin, and their ability to migrate or invade through a Matrigel® barrier (panel a, mouse myoblast migration at 12 hours; panel b, mouse myoblast invasion at 24 hours). […] Bars represent mean ±SEM from a minimum of 3 separate experiments. […] Further studies were done to elucidate the role of MMPs in cytokine-mediated mouse myoblast migration."}, "human myoblasts": {"test_system": "human myoblasts", "test": "In vitro human myoblast migration assay", "format": "cell-based", "conditions": "for effect on stimulated human myoblast migration: plasmin or NAC, FIG. 7c, migration induced by PDGF-BB; for stimulation of human myoblast migration over the BSA control level: 12 hour time point", "experimental": "Mouse myoblasts were previously isolated from hind limb muscles of 4-6 week old severe combined immunodeficient (SCID) mice and clonally purified from contaminating fibroblasts (Yao et al. “Primary myoblast-mediated gene: transfer: persistent expression of human factor IX in mice” Gene Therapy 1:99-107, 1994). Myoblasts (approximately 1×10^6 cells) were plated on 6 cm tissue culture plates coated with 0.5% gelatin (Sigma, St. Louis, Mo.) and grown in growth medium consisting of Dulbecco's Modified Eagle Medium (DMEM) (Gibco BRL, Gaithersburg Md.) supplemented with 20% fetal bovine serum (FBS; Gibco) and 0.5% chick embryo extract (CEE; Gibco). All animal studies were carried out following the institutional guidelines for ethical animal use. Human myoblasts were isolated using trypsin digestion from abdominal wall or chest wall muscle biopsies, and surgery. Written consent was obtained from all patients prior to biopsy isolation as approved by the University Hospital's Institutional Regulation Board on the use of human subjects. Cells were preplated on uncoated plates for 1 hour to separate muscle fibroblasts. Approximately 95% of the cells were desmin-positive following immunohistochemical staining of representative culture samples, and were capable of differentiation into myotubes, indicating high purity of the myoblast preparation. All experiments were done with myoblasts of passage 7 or lower. Myoblast migration and invasion were examined using a commercially available in vitro cell migration and invasion assay kit (Biocoat, Becton Dickinson, Franklin Lakes, N.J.) as described by Albini et al. (A rapid in vitro assay for quantitating the invasive potential of tumor cells Cancer Res 47:3239-3245, 1987). Myoblasts were grown to approximately 70% confluence, rinsed three times in serum-free DMEM, followed by incubation for 3 hours in 0.2% bovine serum albumin (BSA) in DMEM to eliminate the effects of serum. Cells were then trypsinized and collected by centrifugation. Cells were resuspended in serum-free DMEM at a density of 1×10^5 cells/ml, and 0.5 ml aliquots of cell suspension were added to the top chamber. […] Fibronectin subfragments of 45 KDa (Sigma), 120 kDa (Gibco), 63 kDa (Retronectin, Takara) and 70 KDa (Sigma) were used alone or in combination. The growth factor concentrations used were those which could produce maximal effects as examined in the present studies by extending from values reported by Bischoff (“Chemotaxis of skeletal muscle satellite cells” Devel. Dynamics 208:505-515, 1997). For migration studies, the upper chamber membrane was coated with 0.1% gelatin and cells were allowed to migrate for 8-12 hours, while for invasion studies, the upper membrane was coated with 5 μl of Matrigel® diluted to 5 mg/ml in sterile phosphate buffered saline (PBS) and cells were allowed to invade for 24 hours. The top side of the insert membrane was scrubbed free of cells using a cotton swab and the bottom side was stained using the Leukostat-I system (Fisher Diagnostics, Pittsburgh, Pa.). The number of cells per field was counted in 10 randomly selected fields and averaged for each condition. To evaluate the effects of inactivation or activation of MMPs, aliquots (0.05 units in 50 μl PBS) of purified human plasmin (Sigma) or 50 mM N-acetyl cysteine (NAC; Sigma) were added with the cells to the top chamber of the migration assay and growth factor was added to the bottom. […] The effects of growth factors on human myoblast migration in vitro (12 hour time point) were somewhat different from those observed with mouse myoblasts. […] The greatly elevated level of migration of human myoblasts was due in part to the extremely low migration in the BSA control (basal level) of human cells compared to mouse cells. The largest effects on human myoblast migration were produced by fibronectin (100-fold), PDGF (about 62-fold), TGF-β (about 54-fold) and HGF (46-fold) over the control level, while bFGF produced only a 37-fold stimulation (FIG. 7a). […]"}},
  "data": [
    {"molecule": "CC(=O)N[C@@H](CS)C(=O)O", "note": "[NAC, N-acetyl cysteine, reference compound]", "values": [
      {"measurement": "effect on migration stimulated by combination of bFGF and plasmin", "setting": "mouse myoblasts; 50 mM NAC", "value": "dramatic reduction"},
      {"measurement": "effect on bFGF-stimulated mouse myoblast migration", "setting": "mouse myoblasts", "value": "efficiently reduced the effect of bFGF on mouse myoblast migration to a level similar to the BSA control"},
      {"measurement": "effect on migration stimulated by bFGF and fibronectin in combination", "setting": "mouse myoblasts", "value": "attenuated the effects"},
      {"measurement": "effect on stimulated human myoblast migration", "setting": "human myoblasts", "value": "greatly reduced"}
    ]},
    {"molecule": "bovine basic fibroblast growth factor [bFGF]", "values": [
      {"measurement": "stimulation of mouse myoblast migration over the DMEM control", "setting": "mouse myoblasts", "value": 12, "unit": "fold"},
      {"measurement": "effect on mouse myoblast migration", "setting": "mouse myoblasts", "value": "stimulated migration of mouse myoblasts to various degrees"},
      {"measurement": "stimulation of human myoblast migration over the BSA control level", "setting": "human myoblasts", "value": 37, "unit": "fold"}
    ]},
    {"molecule": "human serum fibronectin", "values": [
      {"measurement": "stimulation of mouse myoblast migration over the DMEM control", "setting": "mouse myoblasts", "value": 14, "unit": "fold"},
      {"measurement": "effect on mouse myoblast migration", "setting": "mouse myoblasts", "value": "stimulated migration of mouse myoblasts to various degrees"},
      {"measurement": "stimulation of human myoblast migration over the BSA control level", "setting": "human myoblasts", "value": 100, "unit": "fold"}
    ]},
    {"molecule": "B1", "values": [
      {"measurement": "effect on bFGF-stimulated mouse myoblast migration", "setting": "mouse myoblasts", "value": "increased the migrational response to bFGF by nearly twofold"},
      {"measurement": "effect on migration stimulated by bFGF and fibronectin in combination", "setting": "mouse myoblasts", "value": "attenuated the effect"},
      {"measurement": "effect alone on mouse myoblast migration compared to the control", "setting": "mouse myoblasts; 0.05 units/ml plasmin, no growth factor", "value": "slightly negative effect"},
      {"measurement": "effect on stimulated human myoblast migration", "setting": "human myoblasts", "value": "significantly increased"}
    ]}
  ]
}
